Target: T1, human PAD4 (Homo sapiens, UniProt Q9UM07)
T1 construct: human PAD4 (NM_012387), A2P663, was PCR amplified; His-SUMO (N, cleaved yes); made in house; host or cells: E. coli BL21(DE3)
Assay: In vitro PAD4 BAEE biochemical assay
Details: human PAD4, BAEE substrate; 5 nM PAD4, 2 mM calcium chloride, 3 mM BAEE; geometric mean of multiple experiments
Outline: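 Ammonia release from BAEE deimination monitored by o-phthalaldehyde amine coupling (1 h, 25 °C) after EDTA stop. Final conditions: 5 nM tag-free recombinant human PAD4 (E. coli), 2 mM CaCl2, 3 mM BAEE, pH 7.6 MOPS with DTT; 30 min compound preincubation, then 2 h reaction at 25 °C.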

T1 sequence (Q9UM07 2-663): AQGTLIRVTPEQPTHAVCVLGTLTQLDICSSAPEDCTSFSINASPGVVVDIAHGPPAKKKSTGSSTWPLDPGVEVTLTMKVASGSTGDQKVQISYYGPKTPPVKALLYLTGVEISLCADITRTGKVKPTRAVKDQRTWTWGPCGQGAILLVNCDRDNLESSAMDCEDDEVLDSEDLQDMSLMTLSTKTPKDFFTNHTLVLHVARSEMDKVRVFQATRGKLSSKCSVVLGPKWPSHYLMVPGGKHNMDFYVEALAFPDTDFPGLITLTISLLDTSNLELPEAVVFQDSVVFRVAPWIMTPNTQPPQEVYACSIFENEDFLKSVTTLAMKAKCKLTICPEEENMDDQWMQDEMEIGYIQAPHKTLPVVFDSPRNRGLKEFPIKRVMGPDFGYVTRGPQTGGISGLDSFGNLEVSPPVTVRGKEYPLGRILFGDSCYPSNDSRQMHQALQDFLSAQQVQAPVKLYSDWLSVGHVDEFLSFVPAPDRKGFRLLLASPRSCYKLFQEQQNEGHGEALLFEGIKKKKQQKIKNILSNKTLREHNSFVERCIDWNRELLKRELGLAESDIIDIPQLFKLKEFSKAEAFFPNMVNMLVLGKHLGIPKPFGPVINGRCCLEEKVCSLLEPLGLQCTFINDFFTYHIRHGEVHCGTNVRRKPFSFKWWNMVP

| Compound | IC50 |
| --- | --- |
| CCOC1C[C@@H]2CN(C(=O)c3cc(OC)n4c(C)c(-c5cc6ccc(N(C(F)F)S(C)(=O)=O)nc6n5CC5CC5)nc4c3)[C@H]1[C@@H]2N (stereo partly drawn) [Example 371, N-[2-[7-[(1S,4R,7R)-7-amino-6-ethoxy-2-azabicyclo[2.2.1]heptane-2-carbonyl]-5-methoxy-3-methyl-imidazo[1,2-a]pyridin-2-yl]-1-(cyclopropylmethyl)pyrrolo [2,3-b]pyridin-6-yl]-N-(difluoromethyl) methanesulfonamide] | 10600 nM |
| COc1cc(C(=O)N2[C@H]3CC[C@@H]2[C@H](N)[C@H](OC)C3)cc2nc(-c3cc4ccc([C@@H](C)NC(=O)C56CC(F)(C5)C6)nc4n3CC3CC3)c(C)n12 [Example 22, ~{N}-[(1~{R})-1-[2-[7-[(1~{R},2~{S},3~{R}, 5~{S})-2-amino-3-methoxy-8-azabicyclo [3.2.1]octane-8-carbonyl]-5-methoxy-3-methylimidazo [1,2-a]pyridin-2-yl]-1-(cyclopropylmethyl)pyrrolo[2,3-b]pyridin-6-yl]ethyl]-3-fluorobicyclo[1.1.1] pentane-1-carboxamide] | 483 nM |
| [(1~{R},2~{R},4~{S})-2- amino-7-azabicyclo [2.2.1]heptan-7-yl]-[2-[6- ethyl-1-[(1~{R},2~{R})-2- phenylcyclopropyl]methyl] pyrrolo[2,3-b] pyridin-2-yl]-5-methoxy-3- methylimidazo[1,2-a] pyridin-7-yl]methanone [Example 492] | 2090 nM |
| Cc1c(-c2cc3ccc(N(C(F)F)S(C)(=O)=O)nc3n2CC2CC2)nc2cc(C(=O)N3CCC[C@@H](N)C3)cc([S+](C)[O-])n12 (stereo partly shown) [Example 424, ~{N}-[2-[7-[(3~{R})-3-aminopiperidine-1-carbonyl]-3-methyl-5-methylsulfinylimidazo[1,2-a]pyridin-2-yl]-1-(cyclopropylmethyl)pyrrolo [2,3-b]pyridin-6-yl]-~{N}-(difluoromethyl) methanesulfonamide] | 18000 nM |
| COc1cc(C(=O)N2C[C@H]3CC[C@@H]2[C@H](N)C3)cc2nc(-c3cc4ccc(N(C(F)F)S(C)(=O)=O)nc4n3CC3CC3)c(C)n12 (single isomer, unassigned) [Example 369, ~{N}-[2-[7-[(1~{S},4~{R}, 6~{R})-6-amino-2-azabicyclo[2.2.2]octane-2-carbonyl]-5-methoxy-3-methylimidazo[1,2-a]pyridin-2-yl]-1-(cyclopropylmethyl)pyrrolo [2,3-b]pyridin-6-yl]-~{N}-(difluoromethyl) methanesulfonamide] | 13600 nM |
| COc1cc(C(=O)N2[C@H]3CC[C@@H]2[C@H](N)C3)cc2nc(-c3cc4ccc([C@@H](C)NC(=O)N(C)Cc5cccnc5)nc4n3CC3CC3)c(C)n12 [Example 222, 3-[(1~{R})-1-[2-[7-[(1~{R},2~{R},4~{S})-2-amino-7-azabicyclo[2.2.1]heptane-7-carbonyl]-5-methoxy-3-methylimidazo [1,2-a]pyridin-2-yl]-1-(cyclopropylmethyl)pyrrolo [2,3-b]pyridin-6-yl]ethyl]-1-methyl-1-(pyridin-3-ylmethyl)urea] | 20 nM |
| COc1cc(C(=O)N2[C@H]3CC[C@@H]2[C@H](N)C3)cc2nc(-c3cc4ccc([C@@H](C)NC(=O)N(C)c5ccccc5)nc4n3CC3CC3)c(C)n12 [Example 242, 3-[(1~{R})-1-[2-[7-[(1~{R},2~{R},4~{S})-2-amino-7-azabicyclo[2.2.1]heptane-7-carbonyl]-5-methoxy-3-methylimidazo [1,2-a]pyridin-2-yl]-1-(cyclopropylmethyl)pyrrolo [2,3-b]pyridin-6-yl]ethyl]-1-methyl-1-phenylurea] | 238 nM |
| COc1cc(C(=O)NC[C@@H]2CCCN2)cc2nc(-c3cc4ccc(N(C(F)F)S(C)(=O)=O)nc4n3CC3CC3)c(C)n12 [Example 303, 2-[1-(cyclopropylmethyl)-6-[difluoromethyl (methylsulfonyl)amino]pyrrolo[2,3-b]pyridin-2-yl]-5-methoxy-3-methyl-~{N}-[[(2~{S})-pyrrolidin-2-yl]methyl] imidazo[1,2-a] pyridine-7-carboxamide] | 23500 nM |
| COc1cc(C(=O)N2CCC[C@@H](N)C2)cc2nc(-c3cc4ccc(O[C@@H](C)C(=O)NC56CC(F)(C5)C6)nc4n3CC3CC3)c(C)n12 [Example 631, (2~{S})-2-[2-[7-[(3~{R})-3-aminopiperidine-1-carbonyl]-5-methoxy-3-methylimidazo[1,2-a]pyridin-2-yl]-1-(cyclopropylmethyl)pyrrolo[2,3-b]pyridin-6-yl]oxy-~{N}-(3-fluoro-1-bicyclo[1.1.1]pentanyl)propanamide] | 10000 nM |

Now from value to compound:

| IC50 | Compound |
| --- | --- |
| 37.9 nM | COc1cc(C(=O)N2[C@H]3CC[C@@H]2[C@H](N)C3)cc2nc(-c3cc4ccc([C@@H](C)NC(=O)N5CC(C(F)F)C5)nc4n3CC3CC3)c(C)n12 [Example 206, ~{N}-[(1~{R})-1-[2-[7-[(1~{R},2~{R},4~{S})-2-amino-7-azabicyclo[2.2.1]heptane-7-carbonyl]-5-methoxy-3-methylimidazo [1,2-a]pyridin-2-yl]-1-(cyclopropylmethyl)pyrrolo [2,3-b]pyridin-6-yl]ethyl]-3-(difluoromethyl)azetidine-1-carboxamide] |
| 52.2 nM | COc1cc(C(=O)N2[C@H]3CC[C@@H]2[C@H](N)C3)cc2nc(-c3cc4ccc(N5CCCC6(CC6)S5(=O)=O)nc4n3CC3CC3)c(C)n12 [Example 457, [(1~{R},2~{R},4~{S})-2-amino-7-azabicyclo [2.2.1]heptan-7-yl]-[2-[1-(cyclopropylmethyl)-6-(4,4-dioxo-4$l^6-thia-5-azaspiro[2.5]octan-5-yl)pyrrolo[2,3-b]pyridin-2-yl]-5-methoxy-3-methylimidazo[1,2-a]pyridin-7-yl]methanone] |
| 52.6 nM | COc1cc(C(=O)N2[C@H]3CC[C@@H]2[C@H](N)C3)cc2nc(-c3cc4ccc([C@@H](C)NC(=O)C5CC6(CC6)C5)nc4n3CC3CC3)c(C)n12 [Example 55, ~{N}-[(1~{R})-1-[2-[7-[(1~{R},2~{R},4~{S})-2-amino-7-azabicyclo [2.2.1]heptane-7-carbonyl]-5-methoxy-3-methylimidazo [1,2-a]pyridin-2-yl]-1-(cyclopropylmethyl)pyrrolo[2,3-b]pyridin-6-yl]ethyl] spiro[2.3]hexane-5-carboxamide] |
| 30.4 nM | COc1cc(C(=O)N2[C@H]3CC[C@@H]2[C@H](N)C3)cc2nc(-c3cc4ccc([C@@H](C)NC(=O)[C@H]5CC5(F)F)nc4n3CC3CC3)c(C)n12 [Example 131, (1~{R})-~{N}-[(1~{R})-1-[2-[7-[(1~{R},2~{R},4~{S})-2-amino-7-azabicyclo[2.2.1]heptane-7-carbonyl]-5-methoxy-3-methylimidazo [1,2-a]pyridin-2-yl]-1-(cyclopropylmethyl)pyrrolo [2,3-b]pyridin-6-yl]ethyl]-2,2-difluorocyclopropane-1-carboxamide] |
| 46.9 nM | COc1cc(C(=O)N2[C@H]3CC[C@@H]2[C@H](N)C3)cc2nc(-c3cc4ccc([C@@H](C)NC(=O)NC(C)(C)C(F)(F)F)nc4n3CC3CC3)c(C)n12 [Example 213, 1-[(1~{R})-1-[2-[7-[(1~{R},2~{R},4~{S})-2-amino-7-azabicyclo[2.2.1]heptane-7-carbonyl]-5-methoxy-3-methylimidazo [1,2-a]pyridin-2-yl]-1-(cyclopropylmethyl)pyrrolo [2,3-b]pyridin-6-yl]ethyl]-3-(1,1,1-trifluoro-2-methylpropan-2-yl)urea] |
| 145 nM | COc1cc(C(=O)N2[C@H]3CC[C@@H]2[C@H](N)C3)cc2nc(-c3cc4ccc(N5CCCC(C)S5(=O)=O)nc4n3CC3CC3)c(C)n12 (stereo partly shown) [Example 454, [(1~{R},2~{R},4~{S})-2-amino-7-azabicyclo [2.2.1]heptan-7-yl]-[2-[1-(cyclopropylmethyl)-6-(6-methyl-1,1-dioxothiazinan-2-yl)pyrrolo [2,3-b]pyridin-2-yl]-5-methoxy-3-methylimidazo[1,2-a]pyridin-7-yl]methanone] |
| 60.7 nM | CS(=O)(=O)N(c1ccc2cc(-c3nc4cc(C(=O)N5CCC[C@@H](N)C5)ccn4c3C3CC3)n(CC3CC3)c2n1)C(F)F [Example 398, ~{N}-[2-[7-[(3~{R})-3-aminopiperidine-1-carbonyl]-3-cyclopropylimidazo[1,2-a]pyridin-2-yl]-1-(cyclopropylmethyl)pyrrolo [2,3-b]pyridin-6-yl]-~{N}-(difluoromethyl) methanesulfonamide] |
| 134 nM | COc1cc(C(=O)N2[C@H]3CC[C@@H]2[C@H](N)C3)cc2nc(-c3cc4ccc([C@@H](C)Nc5ncc(F)cn5)nc4n3CC3CC3)c(C)n12 [Example 264, [(1~{R},2~{R},4~{S})-2-amino-7-azabicyclo [2.2.1]heptan-7-yl]-[2-[1-(cyclopropylmethyl)-6-[(1~{R})-1-[(5-fluoropyrimidin-2-yl)amino]ethyl]pyrrolo[2,3-b]pyridin-2-yl]-5-methoxy-3-methylimidazo[1,2-a]pyridin-7-yl]methanone] |
| 145 nM | CCN(c1ccc2cc(-c3nc4cc(C(=O)N5CCC[C@@H](N)C5)cc(OC)n4c3C)n(CC3CC3)c2n1)S(C)(=O)=O [Example 484, ~{N}-[2-[7-[(3~{R})-3-aminopiperidine-1-carbonyl]-5-methoxy-3-methylimidazo[1,2-a]pyridin-2-yl]-1-(cyclopropylmethyl)pyrrolo [2,3-b]pyridin-6-yl]-~{N}-ethylmethanesulfonamide] |
| 108 nM | COCC1(C(=O)N[C@H](C)c2ccc3cc(-c4nc5cc(C(=O)N6[C@H]7CC[C@@H]6[C@H](N)C7)cc(OC)n5c4C)n(CC4CC4)c3n2)CCC1 [Example 29, ~{N}-[(1~{R})-1-[2-[7-[(1~{R},2~{R},4~{S})-2-amino-7-azabicyclo [2.2.1]heptane-7-carbonyl]-5-methoxy-3-methylimidazo[1,2-a]pyridin-2-yl]-1-(cyclopropylmethyl)pyrrolo[2,3-b]pyridin-6-yl]ethyl]-1-(methoxymethyl) cyclobutane-1-carboxamide] |

— patent US12240862B2, “Inhibitors of peptidylarginine deiminases” (Gilead Sciences, Inc., priority 2020, dated 2025)
